Assays:
Test in all cases: increase in dead-cell fraction, 72 h; higher = more death;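 further: breast cancer cell lines in 384-well plates, stained with Hoechst plus LIVE/DEAD far red dye and imaged, cells above an LDR intensity threshold counted dead, Hoechst-negative corpses included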
[1] = compound: CCN1CCN(Cc2ccc(Nc3ncc(F)c(-c4cc(F)c5nc(C)n(C(C)C)c5c4)n3)nc2)CC1
[2] = compound: CCc1cnn2c(NCc3ccc[n+]([O-])c3)cc(N3CCCC[C@H]3CCO)nc12
THZ1 = compound: CN(C)C/C=C/C(=O)Nc1ccc(C(=O)Nc2cccc(Nc3ncc(Cl)c(-c4c[nH]c5ccccc45)n3)c2)cc1 [THZ1]
YKL-5-124 = compound: C=CC(=O)Nc1ccc(C(=O)Nc2[nH]nc3c2CN(C(=O)N[C@H](CN(C)C)c2ccccc2)C3(C)C)cc1 [YKL-5-124]
Neratinib/HKI272 = compound: CCOc1cc2ncc(C#N)c(Nc3ccc(OCc4ccccn4)c(Cl)c3)c2cc1NC(=O)/C=C/CN(C)C [Neratinib/HKI272]
Flavopiridol = compound: CN1CC[C@H](c2c(O)cc(O)c3c(=O)cc(-c4ccccc4Cl)oc23)[C@H](O)C1 [Flavopiridol]

With HCC202 the “increase in dead-cell fraction” value ([1]; 0.001 µM) was 0.0017, the “increase in dead-cell fraction” value ([1]; 0.003162 µM) was 0.0045 and the “increase in dead-cell fraction” value ([1]; 0.01 µM) was 0.0025. The “increase in dead-cell fraction” value ([1]; 0.03162 µM) was 0.0166, the “increase in dead-cell fraction” value ([1]; 0.1 µM) was 0.02 and the “increase in dead-cell fraction” value ([1]; 0.3162 µM) was 0.0336. For the same cell line, the “increase in dead-cell fraction” value ([1]; 1 µM) was 0.0207, the “increase in dead-cell fraction” value ([1]; 3.162 µM) was 0.049 and the “increase in dead-cell fraction” value ([1]; 10 µM) was 0.0763. For the same cell line, the “increase in dead-cell fraction” value ([2]; 0.0001 µM) was 0.0056, the “increase in dead-cell fraction” value ([2]; 0.0003162 µM) was 0.0103 and the “increase in dead-cell fraction” value ([2]; 0.001 µM) was -0.0029. The “increase in dead-cell fraction” value ([2]; 0.003162 µM) was -0.0193, the “increase in dead-cell fraction” value ([2]; 0.01 µM) was -0.0112 and the “increase in dead-cell fraction” value ([2]; 0.03162 µM) was 0.132. For the same cell line, the “increase in dead-cell fraction” value ([2]; 0.1 µM) was 0.106, the “increase in dead-cell fraction” value ([2]; 0.3162 µM) was 0.122 and the “increase in dead-cell fraction” value ([2]; 1 µM) was 0.126. The “increase in dead-cell fraction” value (THZ1; 0.0001 µM) was 0.0041, the “increase in dead-cell fraction” value (THZ1; 0.0003162 µM) was -0.0036 and the “increase in dead-cell fraction” value (THZ1; 0.001 µM) was 0.0114. The “increase in dead-cell fraction” value (THZ1; 0.003162 µM) was 0.0077, the “increase in dead-cell fraction” value (THZ1; 0.01 µM) was 0.0009 and the “increase in dead-cell fraction” value (THZ1; 0.03162 µM) was 0.0391. The “increase in dead-cell fraction” value (THZ1; 0.1 µM) was 0.0709, the “increase in dead-cell fraction” value (THZ1; 0.3162 µM) was 0.103 and the “increase in dead-cell fraction” value (THZ1; 1 µM) was 0.164. For the same cell line, the “increase in dead-cell fraction” value (YKL-5-124; 0.001 µM) was 0.0491, the “increase in dead-cell fraction” value (YKL-5-124; 0.003162 µM) was 0.0507 and the “increase in dead-cell fraction” value (YKL-5-124; 0.01 µM) was 0.0643. For the same cell line, the “increase in dead-cell fraction” value (YKL-5-124; 0.03162 µM) was 0.0596, the “increase in dead-cell fraction” value (YKL-5-124; 0.1 µM) was 0.0803 and the “increase in dead-cell fraction” value (YKL-5-124; 0.3162 µM) was 0.0716. The “increase in dead-cell fraction” value (YKL-5-124; 1 µM) was 0.0671, the “increase in dead-cell fraction” value (YKL-5-124; 3.162 µM) was 0.081 and the “increase in dead-cell fraction” value (YKL-5-124; 10 µM) was 0.213. For the same cell line, the “increase in dead-cell fraction” value (Neratinib/HKI272; 0.0003162 µM) was -0.0093, the “increase in dead-cell fraction” value (Neratinib/HKI272; 0.001 µM) was -0.0087 and the “increase in dead-cell fraction” value (Neratinib/HKI272; 0.003162 µM) was 0.0183. For the same cell line, the “increase in dead-cell fraction” value (Neratinib/HKI272; 0.01 µM) was 0.0049, the “increase in dead-cell fraction” value (Neratinib/HKI272; 0.03162 µM) was 0.0466 and the “increase in dead-cell fraction” value (Neratinib/HKI272; 0.1 µM) was 0.0644. The “increase in dead-cell fraction” value (Neratinib/HKI272; 0.3162 µM) was 0.0996, the “increase in dead-cell fraction” value (Neratinib/HKI272; 1 µM) was 0.103 and the “increase in dead-cell fraction” value (Neratinib/HKI272; 3.162 µM) was 0.136. For the same cell line, the “increase in dead-cell fraction” value (Flavopiridol; 0.0001 µM) was 0.0217, the “increase in dead-cell fraction” value (Flavopiridol; 0.0003162 µM) was -0.005 and the “increase in dead-cell fraction” value (Flavopiridol; 0.001 µM) was 0.0178. The “increase in dead-cell fraction” value (Flavopiridol; 0.003162 µM) was -0.0039, the “increase in dead-cell fraction” value (Flavopiridol; 0.01 µM) was -0.0121 and the “increase in dead-cell fraction” value (Flavopiridol; 0.03162 µM) was 0.0154. For the same cell line, the “increase in dead-cell fraction” value (Flavopiridol; 0.1 µM) was 0.0477, the “increase in dead-cell fraction” value (Flavopiridol; 0.3162 µM) was 0.115 and the “increase in dead-cell fraction” value (Flavopiridol; 1 µM) was 0.133.
